According to the CATMoS acute toxicity set (Mansouri et al. 2021):

Assay: GHS categories as the set defines them, by LD50: 1 up to 5, 2 up to 50, 3 up to 300, 4 up to 2000, 5 above 2000 mg/kg
Details: rat; in vivo; po

CCCCCCCC/C=C\CCCCCCCC(=O)OC[C@@H](OC(=O)CCCCCCC/C=C\CCCCCCCC)[C@H]1OC[C@H](O)[C@H]1O
GHS category: 5

C[C@]12CCC(=O)C[C@@H]1CC[C@@H]1[C@@H]2CC[C@@]2(C)[C@H]1CC[C@]2(C)O
GHS category: 5

CCCCCCCC/C=C\CCCCCCCCCCCC(N)=O
GHS category: 5

O=C(O)c1cc(O)[nH]c(=O)c1
GHS category: 5

CNc1ccc(C(=O)c2ccccc2)cc1O
GHS category: 5

C=CC/C=C/C/C=C/C/C=C/C
GHS category: 5

CC(C)COC(=O)Nc1nc(N2CC=CCC2)cc2nc(=O)on12
GHS category: 5

Cc1ncoc1C(N)=O
GHS category: 5

CCC(C)(C)c1ccccc1
GHS category: 5

Cc1ccc(C(=O)O)c(Oc2ccccc2CC(=O)O)c1C
GHS category: 5

CNc1ccc(C(=O)O)cc1[N+](=O)[O-]
GHS category: 5

CCCCCCCCCCCC#N
GHS category: 5

COc1cc2c(cc1OC)[C@@H]1C[C@H](C[C@H]3CCCCN31)OC(=O)C=Cc1ccc(O)c-2c1
GHS category: 4

CNS(=O)(=O)Cc1ccc2[nH]cc(CCN(C)C)c2c1
GHS category: 5

C/C=C(\C)C(=O)OCCc1ccccc1
GHS category: 5

CCC1Nc2cc(Cl)c(S(N)(=O)=O)cc2S(=O)(=O)N1 (stereo not given)
GHS category: 5

Nc1nc(N)nc(NC(=O)NC(=O)c2ccc(Cl)cc2)n1
GHS category: 5

CC(=O)OCOC(=O)C1=C(COC(N)=O)SC2C(C(C)O)C(=O)N12 (stereo not given)
GHS category: 5

CC(C)OC(=O)c1cc(C(=O)OC(C)C)cc([N+](=O)[O-])c1
GHS category: 5

CC1N=C(c2ccccc2F)c2c(ccc(NC(=O)NCCO)c2Br)N(C)C1=O (stereo not given)
GHS category: 5

CCCCCCCCCCCC(=O)OOC(=O)CCCCCCCCCCC
GHS category: 5

COc1cc(OC)nc(NC(=O)NS(=O)(=O)c2c(-c3nnn(C)n3)cnn2C)n1
GHS category: 5

Cc1c([N+](=O)[O-])c(C)c([N+](=O)[O-])c(C(C)(C)C)c1[N+](=O)[O-]
GHS category: 5

CC(C)OC(=O)CCC(=O)OC(C)C
GHS category: 5

CCCCCCCCCCCCCCCNP1(=S)OCc2cc([N+](=O)[O-])ccc2O1 (stereo not given)
GHS category: 3

C=COC(=O)C1=C(C)N[C@@](C)(c2ccc(N3CCN(C(c4ccccc4)c4ccccc4)CC3)cc2)C(C(=O)OC)C1c1cccc([N+](=O)[O-])c1 (stereo not given in full)
GHS category: 4

CCOC[C@H]1CO[C@@](Cn2cncn2)(c2cc3ccccc3o2)O1
GHS category: 4

O=[N+]([O-])c1ccc(C=NOCc2cccc([N+](=O)[O-])c2)cc1
GHS category: 4

CCOC(=O)Cn1c(=O)sc2cccc(Cl)c21
GHS category: 5

COc1ccc(NC(=O)c2cc3ccccc3cc2O)cc1
GHS category: 5

Nc1nc2cc(Cl)cc(S(=O)(=O)O)c2o1
GHS category: 4

COCCCCC(=O)c1ccc(C(F)(F)F)cc1
GHS category: 5

O=C(O)c1cccc2cccc(-c3cccc4cccc(C(=O)O)c34)c12
GHS category: 5

CCCCC/C=C\C=C\C(=O)OCC
GHS category: 5

NC(=O)Oc1ccccc1C(=O)Oc1ccc(Cl)cc1
GHS category: 5

CCCCCCCCCCCC(=O)N(CC)CC
GHS category: 5

CC(=O)Nc1c(I)c(C(=O)N[C@H]2C(O)O[C@H](CO)[C@@H](O)[C@@H]2O)c(I)c(N(C)C(C)=O)c1I (stereo not given in full)
GHS category: 5

Cc1nsc(NC(=O)c2ccccc2)c1C(=O)Nc1ccc(Cl)cc1
GHS category: 5

CNc1ccc(C(=O)c2cccs2)cc1O
GHS category: 5

COc1cc(C#N)cc(OC)c1O
GHS category: 5

Cc1ccc(C(=O)c2cc(O)c(O)c([N+](=O)[O-])c2)cc1
GHS category: 5

CNC(=O)Oc1cc(C)cc(C)c1C
GHS category: 3

CC(C)(C)c1ccc(C=O)cc1
GHS category: 4

COc1ccc2c(c1)CCN(c1ccccc1)C2c1ccc(F)cc1 (stereo not given)
GHS category: 4

CCc1cc(C)cc(CC)c1-c1c(OC(=O)C(C)(C)C)n2n(c1=O)CCOCC2
GHS category: 5

Cc1nc(Cl)cc(Nc2ncc(C(=O)Nc3c(C)cccc3Cl)s2)n1
GHS category: 5

CN1C(=O)COc2cc(C(=O)c3ccccc3)ccc21
GHS category: 5

CN1CN(C)CN(C)C1
GHS category: 4

CCCc1ccc(OCC(=O)N2CCN(C(=O)COc3ccc(CCC)cc3OC)CC2)c(OC)c1
GHS category: 4

CCCc1c(Cc2ccc(-c3ccccc3-c3nn[nH]n3)cc2)c(=O)nc2nc(CO)[nH]n12
GHS category: 4

CCCCCCCCCCCCCCCc1cccc(OC(=O)c2cc(Cl)ccc2OC(N)=O)c1
GHS category: 5

Nc1nc(=O)c2c(CCc3ccc(C(=O)O)cc3)c[nH]c2[nH]1
GHS category: 5

C=CC(C)(O)CCC=C(C)CC(C)C (stereo not given)
GHS category: 5

CCO[Si](CCCNC=O)(OCC)OCC
GHS category: 5

COc1cc(C(=O)OCCCN2CCCN(CCCOC(=O)c3cc(OC)c(OC)c(OC)c3)CC2)cc(OC)c1OC
GHS category: 5

Cc1cc(=O)nc(C(C)(C)O)[nH]1
GHS category: 5

CC(=O)N1c2ccccc2SC1c1cc([N+](=O)[O-])ccc1OCCCN(C)C1CCCCC1 (stereo not given)
GHS category: 5

CC(C)c1[nH]c2ccccc2c1C(=O)c1cccnc1
GHS category: 5

CCC(C)Cl (stereo not given)
GHS category: 5

Clc1ccc2oc(C3(Cn4cncn4)OCCCO3)cc2c1
GHS category: 4

O=C(Nc1ccc(Cl)cc1C(O)c1ccccc1)c1ccncc1 (stereo not given)
GHS category: 5

CC[n+]1c(-c2ccccc2)c2cc(N)ccc2c2ccc(N)cc21
GHS category: 5

CCOP(OCC)c1ccccc1
GHS category: 5

O=C1COc2cc(C(=O)c3ccc(Cl)cc3)ccc2N1
GHS category: 5

CCCC(=O)O[C@H]1[C@H](C)O[C@@H](O[C@H]2[C@H](N(C)C)[C@@H](O)[C@H](O[C@H]3[C@@H](CC=O)C[C@@H](C)[C@@H](O)/C=C/C=C/C[C@@H](C)OC(=O)C[C@@H](O)[C@@H]3OC)O[C@@H]2C)C[C@@]1(C)OC(=O)CC
GHS category: 5

CC(C)(C)[C@H](NC(=O)OCc1ccccc1)C(=O)O
GHS category: 4

NC(=S)NS(=O)(=O)c1ccc(N)cc1
GHS category: 5

CCCCOC(=O)c1ccc(-n2nc(OC)c3ccccc32)cc1
GHS category: 5

CC(C)CCCCCCCCCCCCCCCOC(=O)CCCCCCCCCCCCCCC(C)C
GHS category: 5

COC(=O)c1ccc(N2CCC(c3ccc(Cl)cc3)=N2)cc1
GHS category: 5

CCCCCCCCCCCCCCCCCCCCCCc1ccccc1
GHS category: 5

CC(=O)Nc1ccc(/N=N/c2c(S(=O)(=O)O)cc3cc(NC(=O)Nc4ccc5c(O)c(/N=N/c6ccccc6)c(S(=O)(=O)O)cc5c4)ccc3c2O)cc1
GHS category: 5

Cc1ccc2ncc(C(=O)NC3CCCC3)c(=O)n2c1
GHS category: 3

CCCCCCCCCCCCCCCCCC(=O)OC[C@@H](OC(=O)CCCCCCCCCCCCCCCCC)[C@H]1OC[C@H](O)[C@H]1OC(=O)CCCCCCCCCCCCCCCCC
GHS category: 5

O=C(O)CCCCC(=O)O
GHS category: 5

O=CC=Cc1ccco1
GHS category: 4

CO/N=C(\C(=O)N[C@@H]1C(=O)N2C(C(=O)[O-])=C(C[N+]34CCC(C(N)=O)(CC3)CC4)CS[C@H]12)c1nsc(N)n1
GHS category: 5

CCOC[C@H]1CO[C@@](Cn2cncn2)(c2cc3cc(Cl)cc(Cl)c3o2)O1
GHS category: 4

Oc1c(-c2[nH]c3ccccc3c2O)[nH]c2ccccc12
GHS category: 5

COc1ccc2cc([C@H](C)C(=O)OCCN3CCN(CCOC(=O)[C@@H](C)c4ccc5cc(OC)ccc5c4)CC3)ccc2c1
GHS category: 5

CCCC(=O)c1ccc2c(c1)OC(C)C(=O)N2C (stereo not given)
GHS category: 5

CCOC(=O)C(C)(C)c1ccccc1
GHS category: 5

CCCCCCCCCCBr
GHS category: 5

COc1ccc(C2(O)c3ccccc3C3=NCCN32)cc1 (stereo not given)
GHS category: 4

Cc1cccc2ncc(C(=O)NCC(C)(C)C)c(=O)n12
GHS category: 3

CNCC(O)CO (stereo not given)
GHS category: 5

CC(C)(N=C(O)C(Br)C(C)(C)C)c1ccccc1 (stereo not given)
GHS category: 5

C[C@]12CC[C@H]3[C@@H](CCC4=CC(=O)C=C[C@@]43C)[C@@H]1CC[C@H]2O
GHS category: 5

O=C1CC(=O)NC(=S)N1
GHS category: 5

Nc1nc2c(ncn2[C@@H]2O[C@H](COP(=O)(O)O)[C@@H](O)[C@H]2O)c(=O)[nH]1
GHS category: 5

CCN(CC)CCC(C#N)(CC=C(C)C)c1cccc2ccccc12 (stereo not given)
GHS category: 4

CNC(=C[N+](=O)[O-])NCCSCc1ccc(CN(C)C)o1
GHS category: 5

C[C@]12COC(=O)C[C@@H]1CC[C@@H]1[C@@H]2CC[C@@]2(C)[C@H]1CC[C@]2(C)O
GHS category: 5

NC(=O)NC1CCC(=O)c2sccc21 (stereo not given)
GHS category: 5

Cc1nc2ncnn2c(C)c1Cc1ccc(-c2ccccc2-c2nn[nH]n2)cc1
GHS category: 4

CNc1ccc(Cl)cc1C(=O)c1ccccc1Cl
GHS category: 5

CCCO[Si](OCCC)(OCCC)OCCC
GHS category: 5

Cc1nc(N)sc1C(=O)NCc1ccccc1
GHS category: 4

CCC(C)(C)NC(=O)c1cnc2cccc(C)n2c1=O
GHS category: 3

CCC1(CC)COC(Cn2cncn2)(c2cc3ccccc3o2)OC1
GHS category: 4

Nc1ncnc2c1ncn2[C@@H]1O[C@H](CO)[C@@H](O)[C@@H]1O
GHS category: 5

CCCCCCCCCCC[C@@H]1C[C@H](O)[C@H](CCCCCC)C(=O)O1
GHS category: 5

O=C1NC(=O)c2ccc3c4ccc5c6c(ccc(c7ccc1c2c73)c64)C(=O)NC5=O
GHS category: 5

O=C1c2ccccc2C(=O)c2c(Nc3ccccc3)ccc(O)c21
GHS category: 5

CCC(C(=O)Oc1cc(C)ccc1C(C)C)c1ccc(-c2ccccc2)cc1 (stereo not given)
GHS category: 5

NCCCN(CCO)CCO
GHS category: 5

CC(C)(C)c1cc2c(c(C(C)(C)C)c1)OP(=O)(O)Oc1c(cc(C(C)(C)C)cc1C(C)(C)C)C2
GHS category: 5

CC1CC(OC(=O)C(Oc2ccccc2Cl)C(C)C)CC(C)(C)C1 (stereo not given)
GHS category: 5

COc1ccc(Cl)cc1N/C(=N/C1CCCCC1)c1ccccc1C
GHS category: 4

CCOc1ccc(Cc2cc([C@@H]3O[C@H](COC(C)=O)[C@@H](OC(C)=O)[C@H](OC(C)=O)[C@H]3OC(C)=O)ccc2Cl)cc1
GHS category: 5

CCOC(=O)C1=C(C)C=CCC1(C)C
GHS category: 5

CNC(=O)Oc1cccc2c1OC(C)(C(C)(C)C)O2 (stereo not given)
GHS category: 4

CC(C)C1CCCCC1
GHS category: 5

C=CC(=O)OCCCCCC(C)C
GHS category: 5

NC(=O)c1ccc(N)cc1
GHS category: 5
